Here are results for two compounds from patent publication US5234936A, “Pyrimidocycloalkanes as a II antagonists” (American Home Products Corporation, priority 1991, dated 1993).

The test system of this assay is A II-infused rat. The assay can be described thus: antihypertensive action in A II-infused rat model. The class given is in vivo. The procedure: In accordance with their ability to antagonize angiotensin II, the compounds of this invention show antihypertensive action in the following A II-infused rat model. Rats are anesthetized with Dial-Urethane (0.60 mL/kg, ip) and the trachea cannulated with PE 240. Either one femoral artery and both femoral veins or the carotid artery and the corresponding jugular vein are cannulated with PE 50. If the jugular vein is cannulated, two cannulas are placed in the one vein. The initial portion of the duodenum (just distal to the stomach) is cannulated with PE 50 via a small midline incision. Arterial pressure and heart rate are measured from the arterial cannula. Ten to 15 min are allowed following surgery for stabilization of arterial pressure. Ganglion blockade is then produced by intravenous administration of mecamylamine at 3 mg/kg (1 mL/kg of a 3 mg/mL solution). Ganglion blockade causes a fall in arterial pressure of about 50 mmHg. Mecamylamine is given every 90 min throughout the remainder of the experiment. An A II infusion is then begun into the other venous cannula at 0.25 μg/kg/min (at 9.6 μL/min). The A II infusion returns arterial pressure to or slightly above the control level. Once arterial pressure has stabilized with the A II infusion, baseline values for means arterial pressure (MAP) and heart rate are taken. […]

Structures are written as SMILES.

As to `CNC1(C)C2CCC(C2)C1(C)C` (centres unmarked) [mecamylamine], the “fall in arterial pressure on ganglion blockade” value (mecamylamine 3 mg/kg intravenous, before A II infusion, anesthetized rats) is given as “about 50 mmHg”. For the compound `FC(F)(F)c1nc2c(c(NCc3ccc(-c4ccccc4-c4nnn[nH]4)cc3)n1)CCCCC2.O.[K]` [Example 5, 6,7,8,9-tetrahydro-N-[[2'-(1H-tetrazol-5-yl)[1,1'-biphenyl]-4-yl]methyl]-2-(trifluoromethyl)-5H-cycloheptapyrimidin-4-amine potassium salt hydrate], the “average lowering of the A II dependent blood pressure” value (3 mg/kg id (intraduodenal), one half hour postadministration, ganglion-blocked A II-infused rats) turned out to be 45%.
